The values below come from PMC6522510 (Nature Communications, 2019).

Where a name gives a salt, the structure may show the parent alone. Read-outs that look alike come from different tables or passages of the source.

Among the test systems are CHRF288-11; CMK; CMS; M07e; ML-2; MOLM-13; MV4-11; U937.
Parameters in all cases: species or system AML cell lines (8); Primary HTS, single concentration about 10 uM, Cell Titer Glo viability; log10 luminescence, per cent inhibition relative to cycloheximide control
Details in all cases: 72 h, relative to cycloheximide control, log10 luminescence, inhibitor
On the technique in general: ATP-based viability assays read luminescence as a measure of living cells.

As for `COc1ccc2cc(CCC(C)=O)ccc2c1` [SJ000285475-3, NABUMETONE], the CHRF288-11 %inh with CHRF288-11 (CHRF288-11 %inh, 10 µM) is -3.141%. Besides, the CMK %inh with CMK (CMK %inh, 10 µM) was found to be 0.8703%. In addition, the CMS %inh with CMS (CMS %inh, 10 µM) was 0.5932%. For the same compound, in the test on M07e (M07e %inh, 10 µM), the M07e %inh was found to be 3.981%. Moreover, in the test with ML-2 (ML-2 %inh, 10 µM), the ML-2 %inh is listed as 2.121%. For the same compound, the MOLM-13 %inh with MOLM-13 (MOLM-13 %inh, 10 µM) came out at 0.1221%. The MV4-11 %inh in the test with MV4-11 (MV4-11 %inh, 10 µM) was 0.7976%. Also, the U937 %inh in the test with U937 (U937 %inh, 10 µM) is reported as -2.289%.

Regarding `COc1ccc2cc(CCC(C)=O)ccc2c1` [SJ000285475-4, NABUMETONE], the CHRF288-11 %inh in the test with CHRF288-11 (CHRF288-11 %inh, 10 µM) was -4.035%. In addition, the CMK %inh in the test on CMK (CMK %inh, 10 µM) is on record as 3.657%. Besides, the CMS %inh in the test on CMS (CMS %inh, 10 µM) is reported as -2.394%. The M07e %inh in the test with M07e (M07e %inh, 10 µM) is on record as -0.5005%. Besides, in the test on ML-2 (ML-2 %inh, 10 µM), the ML-2 %inh is 1.434%. Also, in the test with MOLM-13 (MOLM-13 %inh, 10 µM), the MOLM-13 %inh is recorded as 3.416%. The MV4-11 %inh in the test with MV4-11 (MV4-11 %inh, 10 µM) is -0.967%. For the same compound, in the test on U937 (U937 %inh, 10 µM), the U937 %inh was determined as 0.6601%.

With `CC(CN(C)C)CN1c2ccccc2Sc2ccccc21` (stereo not shown) [SJ000285488-4, TRIMEPRAZINE TARTRATE], in the test on CHRF288-11, the CHRF288-11 %inh is on record as 12.91%. Besides, the CMK %inh in the test on CMK came out at 71.37%. In addition, the CMS %inh with CMS was -1.909%. The M07e %inh in the test with M07e was 5.667%. In the test with ML-2, the ML-2 %inh worked out at 2.204%. For the same compound, the MOLM-13 %inh in the test on MOLM-13 is recorded as 6.284%. Moreover, the MV4-11 %inh in the test on MV4-11 is given as 2.005%. Further, the U937 %inh in the test on U937 is listed as 3.719%.

As for `CC(C)(S)[C@@H](N)C(=O)O` [SJ000285530-3, PENICILLAMINE], the CHRF288-11 %inh with CHRF288-11 was found to be 1.093%. For the same compound, in the test with CMK, the CMK %inh is listed as -2.957%. For the same compound, the CMS %inh in the test with CMS turned out to be 1.349%. The M07e %inh in the test on M07e was 4.147%. The ML-2 %inh in the test on ML-2 came to 0.1436%. The MOLM-13 %inh in the test with MOLM-13 amounted to 4.905%. Also, in the test with MV4-11, the MV4-11 %inh turned out to be 0.7087%. Moreover, the U937 %inh in the test with U937 was -1.029%.

For the compound `CN1C(C(=O)Nc2ccccn2)=C(O)c2ccccc2S1(=O)=O` [SJ000285539-7, PIROXICAM], the CHRF288-11 %inh in the test on CHRF288-11 (CHRF288-11 %inh, 10 µM) is -2.388%. For the same compound, the CMK %inh with CMK (CMK %inh, 10 µM) is on record as -2.958%. For the same compound, the CMS %inh in the test on CMS (CMS %inh, 10 µM) is reported as -2.071%. Also, in the test with M07e (M07e %inh, 10 µM), the M07e %inh is recorded as -0.7405%. The ML-2 %inh in the test with ML-2 (ML-2 %inh, 10 µM) turned out to be 0.4088%. Further, the MOLM-13 %inh in the test on MOLM-13 (MOLM-13 %inh, 10 µM) is on record as -0.4149%. In addition, the MV4-11 %inh with MV4-11 (MV4-11 %inh, 10 µM) is on record as -0.5288%. Moreover, the U937 %inh with U937 (U937 %inh, 10 µM) was determined as 1.434%.

For `CN1C(C(=O)Nc2ccccn2)=C(O)c2ccccc2S1(=O)=O` [SJ000285539-8, PIROXICAM], the CHRF288-11 %inh with CHRF288-11 (CHRF288-11 %inh, 10 µM) is recorded as -0.4698%. For the same compound, the CMK %inh with CMK (CMK %inh, 10 µM) is listed as -3.417%. Also, the CMS %inh in the test with CMS (CMS %inh, 10 µM) amounted to 1.221%. The M07e %inh in the test with M07e (M07e %inh, 10 µM) is given as 1.469%. The ML-2 %inh with ML-2 (ML-2 %inh, 10 µM) amounted to 0.7358%. Moreover, the MOLM-13 %inh in the test on MOLM-13 (MOLM-13 %inh, 10 µM) is -0.7172%. In the test on MV4-11 (MV4-11 %inh, 10 µM), the MV4-11 %inh stood at 0.9197%. For the same compound, the U937 %inh with U937 (U937 %inh, 10 µM) was -0.5241%.

With `C[C@]12C=CC(=O)C=C1CC[C@@H]1[C@@H]2C(=O)C[C@@]2(C)[C@H]1CC[C@]2(O)C(=O)CO` [SJ000285543-4, PREDNISONE], in the test with CHRF288-11 (CHRF288-11 %inh, 10 µM), the CHRF288-11 %inh came out at 3.346%. In addition, the CMK %inh with CMK (CMK %inh, 10 µM) is on record as -3.067%. Also, in the test on CMS (CMS %inh, 10 µM), the CMS %inh is -1.906%. Further, in the test with M07e (M07e %inh, 10 µM), the M07e %inh is given as -1.735%. Moreover, the ML-2 %inh in the test with ML-2 (ML-2 %inh, 10 µM) is -1.792%. In addition, the MOLM-13 %inh with MOLM-13 (MOLM-13 %inh, 10 µM) is -1.419%. The MV4-11 %inh in the test with MV4-11 (MV4-11 %inh, 10 µM) is given as -0.9421%. Besides, the U937 %inh with U937 (U937 %inh, 10 µM) was -1.889%.

In the case of `C[C@]12C=CC(=O)C=C1CC[C@@H]1[C@@H]2C(=O)C[C@@]2(C)[C@H]1CC[C@]2(O)C(=O)CO` [SJ000285543-5, PREDNISONE], the CHRF288-11 %inh in the test with CHRF288-11 (CHRF288-11 %inh, 10 µM) stood at 4.454%. Besides, in the test on CMK (CMK %inh, 10 µM), the CMK %inh is listed as -3.757%. In addition, the CMS %inh in the test on CMS (CMS %inh, 10 µM) is reported as -1.984%. Besides, the M07e %inh in the test with M07e (M07e %inh, 10 µM) was 3.17%. Moreover, the ML-2 %inh with ML-2 (ML-2 %inh, 10 µM) is -0.9024%. Also, the MOLM-13 %inh with MOLM-13 (MOLM-13 %inh, 10 µM) is -2.385%. The MV4-11 %inh in the test with MV4-11 (MV4-11 %inh, 10 µM) is given as 0.6819%. Besides, in the test on U937 (U937 %inh, 10 µM), the U937 %inh was -0.6066%.
